Experimental findings from ChEMBL document CHEMBL1139918, “Novel series of substituted biphenylmethyl urea derivatives as MCH-R1 antagonists for the treatment of obesity” (Bioorg Med Chem, 2007) are described below.

The target of assay [1] is T1, Melanin-concentrating hormone receptor 1 (Homo sapiens, UniProt Q99705). Nature of the assay: Displacement of [3H]SNAP from human MCH1 receptor expressed in HEK cells. It is filed as cell-based, HEK293. (Loss of bound radioactivity is the signal in a displacement assay; it reports binding, not function.)
T1 sequence (Q99705 whole entry): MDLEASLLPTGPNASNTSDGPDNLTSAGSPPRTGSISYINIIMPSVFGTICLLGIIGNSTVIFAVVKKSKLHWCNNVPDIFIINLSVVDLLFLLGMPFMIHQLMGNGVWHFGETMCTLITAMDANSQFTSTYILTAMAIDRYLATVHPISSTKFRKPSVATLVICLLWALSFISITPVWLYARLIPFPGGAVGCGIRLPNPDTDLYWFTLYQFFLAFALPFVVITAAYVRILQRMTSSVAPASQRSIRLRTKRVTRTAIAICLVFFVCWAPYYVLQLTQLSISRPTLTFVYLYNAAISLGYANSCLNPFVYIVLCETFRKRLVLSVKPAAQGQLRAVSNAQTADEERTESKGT
For assay [2], the target named is T1, Melanin-concentrating hormone receptor 1. The note with it: HEK293.
Description: Antagonist activity at human MCH1 receptor expressed in HEK cells after 45 mins by [35S]GTP-gamma-S binding assay

The structures appear in SMILES notation.
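Throughout, for pKb: antagonism measured by [35S]GTPγS binding in HEK cells carrying human MCH1 receptor, 45 min incubation.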

The term Ki denotes a measure of affinity in units of concentration, obtained from inhibition or displacement. Broadly, the pKb is the Kb on a negative log10 scale, so that one unit is a factor of ten. Read a high pKb as a low Kb. Take `Cc1ccc(CN2CCC(CCN(Cc3ccc(-c4ccccc4)cc3)C(=O)NC(C)(C)CO)CC2)cc1`: in assay [1] (read-out: Ki), the Ki was determined as 0.144 µM. In assay [2], the pKb was 6.2. The corresponding values for `Cc1ccc(CN2CCC(NC(=O)N(CC(=O)C(C)(C)O)Cc3ccc(-c4ccc(F)cc4)cc3)CC2)cc1` are 5.86 µM and 5.34. The corresponding values for `CC(=O)OCC(C)(C)NC(=O)N(CCC1CCN(Cc2ccc(C)cc2)CC1)Cc1ccc(-c2ccc(F)cc2)cc1` are 0.421 µM and 6.39. The corresponding values for `CCC(CO)(CO)NC(=O)N(CCC1CCN(Cc2ccc(C)cc2)CC1)Cc1ccc(-c2ccc(OC)cc2)cc1` are 0.143 µM and 6.93. For `Cc1ccc(CN2CCC(NC(=O)N(CC(=O)C(C)(C)O)Cc3ccc(-c4cccc(C#N)c4)cc3)CC2)cc1`, the Ki in assay [1] (read-out: Ki) was 6.38 µM. The negative logarithm of the Kb (pKb) in assay [2] turned out to be 5.3. Taken in the same sequence, the figures for `COc1ccccc1-c1ccc(CN(CCC2CCN(Cc3ccc(C)cc3)CC2)C(=O)NC(C)(C)CO)cc1` were 0.251 µM and 6.88. `Cc1ccc(CN2CCC(CCN(Cc3ccc(-c4ccc(F)cc4)cc3)C(=O)NC(C)C)CC2)cc1`: the Ki in assay [1] (read-out: Ki) is 0.314 µM; in assay [1] (read-out: Log Ki (converted)), 0.313 µM. The pKb in assay [2] is 6.42. As for `CCC(CO)(CO)NC(=O)N(CCC1CCN(Cc2ccc(C)cc2)CC1)Cc1ccc(-c2cccc(C#N)c2)cc1`, the Ki in assay [1] (read-out: Ki) turned out to be 0.769 µM. The same compound had a pKb in assay [2] of 5.41.

With `Cc1ccc(CN2CCC(NC(=O)NCc3ccc(-c4ccc(F)cc4)cc3)CC2)cc1`, the Ki in assay [1] (read-out: Ki) is 0.545 µM; in assay [1] (read-out: Log Ki (converted)), 0.543 µM. In assay [2], the pKb is 6.71. Regarding `CCC(CO)(CO)NC(=O)N(CCC1CCN(Cc2ccc(C)cc2)CC1)Cc1ccc(-c2ccc(F)cc2)cc1`, the Ki in assay [1] (read-out: Ki) was found to be 0.149 µM. The compound also showed a pKb in assay [2] of 6.54. The corresponding values for `CCC(CO)(CO)NC(=O)N(CCC1CCN(Cc2ccc(C)cc2)CC1)Cc1ccc(-c2ccccc2)cc1` are 0.173 µM and 6.83. In assay [2], `COc1ccc(-c2ccc(CN(CC(=O)C(C)(C)O)C(=O)NC3CCN(Cc4ccc(C)cc4)CC3)cc2)cc1` gave a pKb below 5.

With `COc1ccccc1-c1ccc(CN(CCC2CCN(Cc3ccc(C)cc3)CC2)C(=O)NC(C)(C)COC(C)=O)cc1`, in assay [1] (read-out: Ki), the Ki is 0.215 µM. The compound also returned a pKb in assay [2] of 6.14. Taken in the same sequence, the figures for `COc1ccc(-c2ccc(CNC(=O)NC3CCN(Cc4ccc(C)cc4)CC3)cc2)cc1` were 1.46 µM and 6.36. Taken in the same sequence, the figures for `COc1ccccc1-c1ccc(CN(CC(=O)C(C)(C)O)C(=O)NC2CCN(Cc3ccc(C)cc3)CC2)cc1` were 6.05 µM and 5.43. Taken in the same sequence, the figures for `Cc1ccc(CN2CCC(NC(=O)NCc3ccc(-c4cccc(C#N)c4)cc3)CC2)cc1` were 0.186 µM and 6.38. On to `Cc1ccc(CN2CCC(CCN(Cc3ccc(-c4cccc(C#N)c4)cc3)C(=O)NC(C)C)CC2)cc1`, for which the Ki in assay [1] (read-out: Ki) is 0.509 µM. In assay [2], this compound showed a negative logarithm of the Kb (pKb) of 6. With `Cc1ccc(CN2CCC(NC(=O)NCc3ccc(-c4ccccc4)cc3)CC2)cc1`, the Ki in assay [1] (read-out: Ki) is 2.64 µM; in assay [1] (read-out: Log Ki (converted)), 2.66 µM. Also, the pKb in assay [2] was 5.97. For the compound `CCC(COC(C)=O)(COC(C)=O)NC(=O)N(CCC1CCN(Cc2ccc(C)cc2)CC1)Cc1ccc(-c2ccc(F)cc2)cc1`, in assay [1] (read-out: Ki), the Ki turned out to be 0.214 µM. Moreover, in assay [2], the pKb worked out at 6.71. Taken in the same sequence, the figures for `COc1ccccc1-c1ccc(CNC(=O)NC2CCN(Cc3ccc(C)cc3)CC2)cc1` were 0.425 µM and 6.19.

Take `Cc1ccc(CN2CCC(CCN(Cc3ccc(-c4cccc(C#N)c4)cc3)C(=O)NC(C)(C)CO)CC2)cc1`: in assay [1] (read-out: Ki), the Ki is 0.043 µM. The same compound returned a negative logarithm of the Kb (pKb) in assay [2] of 7.08.

Take `CCC(COC(C)=O)(COC(C)=O)NC(=O)N(CCC1CCN(Cc2ccc(C)cc2)CC1)Cc1ccc(-c2cccc(C#N)c2)cc1`: the inhibition constant (Ki) in assay [1] (read-out: Ki) came to 1.08 µM. For the compound `Cc1ccc(CN2CCC(CCN(Cc3ccc(-c4ccc(F)cc4)cc3)C(=O)NC(C)(C)CO)CC2)cc1`, the Ki in assay [1] (read-out: Ki) is 0.0966 µM. Moreover, in assay [2], the pKb amounted to 7.38.

For `CCC(COC(C)=O)(COC(C)=O)NC(=O)N(CCC1CCN(Cc2ccc(C)cc2)CC1)Cc1ccc(-c2ccc(OC)cc2)cc1`, the Ki in assay [1] (read-out: Ki) turned out to be 0.17 µM. This compound came in with a negative-log Kb (pKb) in assay [2] of 6.86. With `COc1ccc(-c2ccc(CN(CCC3CCN(Cc4ccc(C)cc4)CC3)C(=O)NC(C)(C)CO)cc2)cc1`, in assay [1] (read-out: Ki), the Ki worked out at 0.204 µM. For the same compound, the pKb in assay [2] worked out at 7.06. On to `CCC(COC(C)=O)(COC(C)=O)NC(=O)N(CCC1CCN(Cc2ccc(C)cc2)CC1)Cc1ccc(-c2ccccc2OC)cc1`, for which the Ki in assay [1] (read-out: Ki) came out at 1.2 µM.

As for `COc1ccccc1-c1ccc(CN(CCC2CCN(Cc3ccc(C)cc3)CC2)C(=O)NC(C)C)cc1`, the pKb in assay [2] was below 5. On to `CCC(CO)(CO)NC(=O)N(CCC1CCN(Cc2ccc(C)cc2)CC1)Cc1ccc(-c2ccccc2OC)cc1`, for which the inhibition constant (Ki) in assay [1] (read-out: Ki) amounted to 0.167 µM. Also, the negative-log Kb (pKb) in assay [2] came to 6.65.

On to `COc1ccc(-c2ccc(CN(CCC3CCN(Cc4ccc(C)cc4)CC3)C(=O)NC(C)C)cc2)cc1`, for which the Ki in assay [1] (read-out: Ki) came to 0.273 µM. The negative-log Kb (pKb) in assay [2] came out at 6.33. With `Cc1ccc(CN2CCC(CCN(Cc3ccc(-c4ccccc4)cc3)C(=O)NC(C)C)CC2)cc1`, the Ki in assay [1] (read-out: Ki) came to 0.258 µM. As for `CC(=O)OCC(C)(C)NC(=O)N(CCC1CCN(Cc2ccc(C)cc2)CC1)Cc1ccc(-c2cccc(C#N)c2)cc1`, the Ki in assay [1] (read-out: Ki) came out at 0.254 µM. The compound further returned a negative logarithm of the Kb (pKb) in assay [2] of 6.63. The corresponding values for `CCC(COC(C)=O)(COC(C)=O)NC(=O)N(CCC1CCN(Cc2ccc(C)cc2)CC1)Cc1ccc(-c2ccccc2)cc1` are 0.388 µM and 6.58.

Consider `CC(=O)OCC(C)(C)NC(=O)N(CCC1CCN(Cc2ccc(C)cc2)CC1)Cc1ccc(-c2ccccc2)cc1`, for which the Ki in assay [1] (read-out: Ki) is 0.947 µM. The compound further yielded a negative logarithm of the Kb (pKb) in assay [2] of 6.43. The corresponding values for `COc1ccc(-c2ccc(CN(CCC3CCN(Cc4ccc(C)cc4)CC3)C(=O)NC(C)(C)COC(C)=O)cc2)cc1` are 0.595 µM and 6.19.
